Tested on: rat isolated uterus
Assay: Uterotonic (oxytocic) activity on isolated uterus of stilbestrol-primed rats, compared with 5-HT
Design: species or system Wistar female albino rats
Conditions: isolated uterus horn of stilbestrol dipropionate (1 mg/kg i.p., 24 h) pre-treated rats, de Jalon's solution
Method: The above two samples were assayed for their effect on Uterotonic activity using Wistar female albino rats.
The uterotonic property of the test extracts were assessed in two test areas.
1. The oxytocic activity of the Sample A and Sample B is compared with uterine stimulant 5-HT.
Female rats weighing between 150-200 g were pre-treated with stilbestrol dipropionate, 1 mg/kg intra peritoneally 24 h prior to the experiment. The rats were killed by a swift blow on the head and exsanguinated. The uterus of rat dissected and the two horns divided. One horn is suspended in the bath. The rhythmic contractions are abolished by using de jalon's solution. When the spontaneous contractions became regular, the responses to Extracts of Sample A and Sample B and other agonists were recorded using a Frontal lever, isometrically connected to a polygraph.

Compound: CN1CC(=O)N=C1N.NCCc1c[nH]c2ccc(O)cc12.O=S(=O)(O)O [Formulation 5-HT, 5-hydroxytryptamine creatinine sulphate]
- In-vitro treatment (uterine contraction): 1. The control drug 5-HT induced a dose related increase in the height of contraction of rat isolated uterus. and Uterine contraction

Reference: patent US6455077B2, “Herbal composition and method of manufacturing such composition for the management of gynecological disorders” (Dabur Research Foundation, priority 2001, dated 2002)
